From PubChem BioAssay AID1259407 (Chemical Carcinogenesis Research Information System (CCRIS), 2018)
Active and inactive are the calls of the source. How the calls were made is not given here.

System: CCRIS mutagenicity, Ames/micronucleus/aberration tests
Assay: CCRIS mutagenicity studies

In the case of `c1ccc2cc3ccccc3cc2c1`, the mutagenic call (End Point: In vitro chromosomal aberrations, Test System: Chinese hamster lung (CHL/IU) cells, Metabolic Activation: Rat, Liver, S9, Phenobarbital and 5,6-benzoflavone) is reported as “active; positive (structural changes and ploidy). weak response for ploidy”, the mutagenic call (Test System: AMES SALMONELLA TYPHIMURIUM, Strain/Indicator: TA97, Metabolic Activation: NONE, Method: STANDARD PLATE) is reported as “inactive; negative” and the mutagenic call (Test System: AMES SALMONELLA TYPHIMURIUM, Strain/Indicator: TA97, Metabolic Activation: RAT, LIVER, S-9, PCB, Method: STANDARD PLATE) is reported as “active; positive”. The mutagenic call (Test System: AMES SALMONELLA TYPHIMURIUM, Strain/Indicator: TA98, Metabolic Activation: NONE, Method: PREINCUBATION) was “inactive; negative”, the mutagenic call (Test System: AMES SALMONELLA TYPHIMURIUM, Strain/Indicator: TA98, Metabolic Activation: NONE, Method: STANDARD PLATE) was “inactive; negative” and the mutagenic call (Test System: AMES SALMONELLA TYPHIMURIUM, Strain/Indicator: TA98, Metabolic Activation: RAT LIVER S-9, PHENOBARBITAL AND BETA-NAPHTHOFLAVONE, Method: PREINCUBATION) was “inactive; negative”. For the same compound, the mutagenic call (Test System: AMES SALMONELLA TYPHIMURIUM, Strain/Indicator: TA98, Metabolic Activation: RAT, LIVER, S-9, AROCLOR 1254, Method: STANDARD PLATE) was “inactive; negative”, the mutagenic call (Test System: AMES SALMONELLA TYPHIMURIUM, Strain/Indicator: TA98, Metabolic Activation: RAT, LIVER, S-9, PCB, Method: STANDARD PLATE) was “inactive; negative” and the mutagenic call (Test System: AMES SALMONELLA TYPHIMURIUM, Strain/Indicator: TA100, Metabolic Activation: NONE, Method: STANDARD PLATE) was “inactive; negative”. The mutagenic call (Test System: AMES SALMONELLA TYPHIMURIUM, Strain/Indicator: TA100, Metabolic Activation: RAT LIVER S-9, PHENOBARBITAL AND BETA-NAPHTHOFLAVONE, Method: PREINCUBATION) was “inactive; negative”, the mutagenic call (Test System: AMES SALMONELLA TYPHIMURIUM, Strain/Indicator: TA100, Metabolic Activation: RAT, LIVER, S-9, AROCLOR 1254, Method: STANDARD PLATE) was “inactive; negative” and the mutagenic call (Test System: AMES SALMONELLA TYPHIMURIUM, Strain/Indicator: TA100, Metabolic Activation: RAT, LIVER, S-9, PCB, Method: STANDARD PLATE) was “inactive; negative”. The mutagenic call (Test System: AMES SALMONELLA TYPHIMURIUM, Strain/Indicator: TA1535, Metabolic Activation: NONE, Method: PREINCUBATION) was “inactive; negative”, the mutagenic call (Test System: AMES SALMONELLA TYPHIMURIUM, Strain/Indicator: TA1535, Metabolic Activation: RAT LIVER S-9, PHENOBARBITAL AND BETA-NAPHTHOFLAVONE, Method: PREINCUBATION) was “inactive; negative” and the mutagenic call (Test System: AMES SALMONELLA TYPHIMURIUM, Strain/Indicator: TA1537, Metabolic Activation: NONE, Method: PREINCUBATION) was “inactive; negative”. The mutagenic call (Test System: AMES SALMONELLA TYPHIMURIUM, Strain/Indicator: TA1537, Metabolic Activation: RAT LIVER S-9, PHENOBARBITAL AND BETA-NAPHTHOFLAVONE, Method: PREINCUBATION) was “inactive; negative”, the mutagenic call (Test System: AMES SALMONELLA TYPHIMURIUM, Strain/Indicator: TA1538, Metabolic Activation: NONE, Method: PREINCUBATION) was “inactive; negative” and the mutagenic call (Test System: AMES SALMONELLA TYPHIMURIUM, Strain/Indicator: TA1538, Metabolic Activation: RAT LIVER S-9, PHENOBARBITAL AND BETA-NAPHTHOFLAVONE, Method: PREINCUBATION) was “inactive; negative”. For the same compound, the mutagenic call (Test System: E. COLI, Strain/Indicator: WP2 UVRA, Metabolic Activation: HAMSTER, LIVER, S-9, AROCLOR 1254, Method: STANDARD PLATE) was “inactive; negative”, the mutagenic call (Test System: E. COLI, Strain/Indicator: WP2 UVRA, Metabolic Activation: HAMSTER, LIVER, S-9, Method: STANDARD PLATE) was “inactive; negative” and the mutagenic call (Test System: E. COLI, Strain/Indicator: WP2 UVRA, Metabolic Activation: MOUSE, LIVER, S-9, AROCLOR 1254, Method: STANDARD PLATE) was “inactive; negative”. The mutagenic call (Test System: E. COLI, Strain/Indicator: WP2 UVRA, Metabolic Activation: MOUSE, LIVER, S-9, Method: STANDARD PLATE) was “inactive; negative”, the mutagenic call (Test System: E. COLI, Strain/Indicator: WP2 UVRA, Metabolic Activation: NONE, Method: STANDARD PLATE) was “inactive; negative” and the mutagenic call (Test System: E. COLI, Strain/Indicator: WP2 UVRA, Metabolic Activation: RAT, LIVER, S-9, AROCLOR 1254, Method: STANDARD PLATE) was “inactive; negative”. For the same compound, the mutagenic call (Test System: E. COLI, Strain/Indicator: WP2 UVRA, Metabolic Activation: RAT, LIVER, S-9, Method: STANDARD PLATE) was “inactive; negative”, the mutagenic call (Test System: E.COLI, Strain/Indicator: WP2UVRA, Metabolic Activation: NONE, Method: PREINCUBATION) was “inactive; negative” and the mutagenic call (Test System: E.COLI, Strain/Indicator: WP2UVRA, Metabolic Activation: RAT LIVER S-9, PHENOBARBITAL AND BETA-NAPHTHOFLAVONE, Method: PREINCUBATION) was “inactive; negative”. The mutagenic call (Test System: MOUSE LYMPHOMA, Strain/Indicator: L5178Y (TK+/TK-), Metabolic Activation: NONE, Method: SUSPENSION/PLATE) was “inactive; negative”, the mutagenic call (Test System: MOUSE LYMPHOMA, Strain/Indicator: L5178Y (TK+/TK-), Metabolic Activation: RAT, LIVER, S-9, AROCLOR 1254, Method: SUSPENSION/PLATE) was “active; positive” and the mutagenic call (Test System: MOUSE LYMPHOMA, Strain/Indicator: L5178Y (TK+/TK-), Metabolic Activation: RAT, LIVER, S-9, Method: SUSPENSION/PLATE) was “active; positive”.
